Test results from article PMC11094793, “Discovery of LLC0424 as a Potent and Selective in Vivo NSD2 PROTAC Degrader” (Journal of Medicinal Chemistry, 2024).
Like-named read-outs stand apart in the source and are kept apart here.

Legend:
[1] = target: T1, NSD2 (Homo sapiens, UniProt O96028); assay: Compound screening: NSD2 degradation by immunoblotting in VCaP cells; details: VCaP, 24 h
T1 sequence (O96028 1-1365): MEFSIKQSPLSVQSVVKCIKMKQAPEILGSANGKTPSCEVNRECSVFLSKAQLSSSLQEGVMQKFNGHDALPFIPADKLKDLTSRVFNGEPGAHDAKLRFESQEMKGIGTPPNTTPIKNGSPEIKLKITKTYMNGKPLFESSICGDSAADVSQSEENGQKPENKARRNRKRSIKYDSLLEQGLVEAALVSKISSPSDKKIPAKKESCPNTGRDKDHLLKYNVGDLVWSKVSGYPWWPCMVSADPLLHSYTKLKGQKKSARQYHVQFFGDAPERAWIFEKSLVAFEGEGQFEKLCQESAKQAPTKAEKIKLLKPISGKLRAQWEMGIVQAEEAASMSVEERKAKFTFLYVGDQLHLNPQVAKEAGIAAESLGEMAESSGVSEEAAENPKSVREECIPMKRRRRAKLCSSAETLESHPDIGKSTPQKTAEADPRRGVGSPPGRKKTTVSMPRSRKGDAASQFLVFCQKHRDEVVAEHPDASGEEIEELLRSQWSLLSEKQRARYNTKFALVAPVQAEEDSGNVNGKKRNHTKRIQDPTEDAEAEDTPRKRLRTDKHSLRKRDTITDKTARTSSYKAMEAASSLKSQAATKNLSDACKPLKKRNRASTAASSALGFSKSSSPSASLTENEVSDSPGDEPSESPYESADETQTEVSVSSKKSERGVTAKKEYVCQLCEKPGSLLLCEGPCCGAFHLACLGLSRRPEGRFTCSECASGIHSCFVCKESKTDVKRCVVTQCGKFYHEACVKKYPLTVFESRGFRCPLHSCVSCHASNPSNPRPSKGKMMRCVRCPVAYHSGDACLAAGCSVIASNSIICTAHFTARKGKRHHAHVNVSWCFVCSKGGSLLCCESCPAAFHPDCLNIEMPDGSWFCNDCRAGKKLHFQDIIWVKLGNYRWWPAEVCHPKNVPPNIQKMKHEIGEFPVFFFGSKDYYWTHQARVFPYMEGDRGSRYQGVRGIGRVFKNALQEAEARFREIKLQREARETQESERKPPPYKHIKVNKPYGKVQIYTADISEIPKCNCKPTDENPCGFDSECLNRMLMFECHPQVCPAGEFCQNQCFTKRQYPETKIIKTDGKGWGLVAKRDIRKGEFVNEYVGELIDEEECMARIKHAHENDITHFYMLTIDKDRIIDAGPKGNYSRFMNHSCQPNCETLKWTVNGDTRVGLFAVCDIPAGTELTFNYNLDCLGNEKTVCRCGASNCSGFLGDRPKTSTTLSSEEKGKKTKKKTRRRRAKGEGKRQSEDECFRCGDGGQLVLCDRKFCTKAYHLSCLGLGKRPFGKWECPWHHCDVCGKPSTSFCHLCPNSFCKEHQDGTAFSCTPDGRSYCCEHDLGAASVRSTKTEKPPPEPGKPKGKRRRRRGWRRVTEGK
Description: After treatment, the cultured cells were collected and rinsed with phosphate-buffered saline (PBS) in room temperature. The cells were treated with RIPA buffers (ThermoFisher Scientific) supplemented with Halt Protease and Phosphatase Inhibitor Cocktail (ThermoFisher Scientific). After sonication and centrifugation, the total amount of protein in the cell lysates was measured by Pierce Bovine Serum Albumin Standard Pre-Diluted Set (ThermoFisher Scientific). […] After incubated with HRP-conjugated secondary antibodies, the membranes were developed with ECL Prime Western Blotting Detection Reagent (cytiva) and imaged on Odyssey Fc Imager (LiCOR Biosciences).
Western blot was then performed as previously described to detect NSD2 degradation.

[2] = test system: RPMI-8402 cells; assay: Colony formation in soft agar; assay type: cell-based, human; details: 30 days
Description: Colony formation in soft agar was conducted in 12-well plates, with the bottom layer containing 750 μL of 0.8% agarose in 10% FBS/cell media and the top layer containing 0.4% agarose (SEM cells or RPMI-8402 cells). LLC0424 was added every 3 days to the liquid layer on top agarose to reach a final concentration of 2 μM. At the 30 days of treatment, the cells were stained with iodonitrotetrazolium chloride (INT) by adding 500 μL 1× INT PBS solution into each well. After the staining, images were taken using brightfield microscope and plate scan was conducted using Epson Perfection V700 Photo. Colony number counting was performed using ImageJ.

[3] = compared to DMSO or LLC0424N-treated group

- Dmax at 2 µM ([1]; read-out: 2.0 μM Degradation % (VCaP)): 95%
- Dmax at 2 µM ([1]; read-out: % Degradation): 95%
SMILES: O=C1CCC(N2C(=O)c3ccc(N4CCC(NC(=O)c5ccc(NC(=O)c6ccc(CN(C(=O)c7ccc8c(c7)OCC(=O)N8)C7CC7)cc6)cc5)CC4)cc3C2=O)C(=O)N1 (centres unmarked) [compound 10l, N-Cyclopropyl-N-(4-((4-((1-(2-(2,6-dioxopiperidin-3-yl)-1,3-dioxoisoindolin-5-yl)piperidin-4-yl)carbamoyl)phenyl)carbamoyl)benzyl)-3-oxo-3,4-dihydro-2H-benzo[b][1,4]oxazine-7-carboxamide]
- formation of cell colonies ([2]; 2 μM, INT staining): significantly reduced the formation of cell colonies
- colony area [2, 3]: obviously smaller colonies
- colony numbers [2, 3]: significantly fewer cell colonies
